The values that follow are results of earlier work, collected in patent publication US11464797B2, “Use of vitamin composition in preparing drug for preventing, treating, or delaying Alzheimer's disease” (Zensun (Shanghai) Science & Technology, Co., Ltd., priority 2017, dated 2022).

For one series, the system named is ATP level in CA1 area. Particulars: after 10 min of hypoxia in rats, magnesium ion treated brain slices; untreated 16% of normal.
In series [1] the test system is patients with mild cognitive impairment (MCI). Particulars: long-term intake (6-48 months).

As for `[Mg+2]` [magnesium ion, magnesium], the “ATP level, of normal brain slices” value in the series with ATP level in CA1 area was 32%.

With vitamin E, the cognitive function entry in series [1] is recorded as “effectively improve cognitive function”.
